Data: patent US10251845B2, “Fatty acid cysteamine conjugates and their use as activators of autophagy” (Catabasis Pharmaceuticals, Inc., priority 2014, dated 2019)
Like-named read-outs stand apart in the source and are kept apart here.

Columns and labels:
[1] = Plasma and lung tissue drug concentration after oral dosing in mice; assay type: in vivo; settings: male, C57BL/6, mouse, II-3 100 mg/kg po BID 3.5 days, one hour after the last dose
Protocol: (§1) In order to evaluate for in vivo autophagy activation, nave male C57BL/6 mice were dosed orally with compound II-3 (100 mg/kg, BID, 3.5 days). One hour after the last dose, lung tissues and plasma were collected to analyze for drug concentration and autophagy biomarkers. As discussed in earlier examples, the ratio of LC3-II to LC3-I was used as autophagy biomarker. When compound II-3 was dosed orally, the parent compound (i.e. II-3) and a major metabolite (i.e. compound I-1) was detected both in the plasma and lung tissues. One hour after the last dose, the plasma concentration of the parent compound II-3 was 143.0±52.35 ng/mL and the corresponding metabolite I-1 was 741.37±170.2 ng/mL. At this time point, the mouse lung tissue concentration of the parent compound II-3 was 536.48±24.01 ng/g. The metabolite I-1 was also detected in the lung tissues, at a concentration of 411.48±164.0 ng/g. Compound II-3 was able to induce autophagy at the given dose of 100 mg/kg and the 22% increase in the ratio of LC3-II to LC3-I in the isolated lung tissues was statistically significant (p=0.04, FIG. 12).

[2] = test system: IL-1β; assay: RT-PCR of IL-1β mRNA in LPS-stimulated THP-1 cells; assay type: cell-based; settings: 25 μM, LPS stimulation
Protocol: THP-1 cells were obtained from ATCC® TIB202. THP-1 cells were maintained in RPMI1640 (Gibco® RPMI 1640) supplemented with 10% fetal bovine serum. DMEM (#11095) and fetal bovine serum (low endotoxin grade) (#10437) was obtained from Invitrogen.
Compounds II-3 and I-1 were first solubilized in 100% DMSO as 50 mM solution, and then diluted 1 to 200 in 1% BSA as a 10× stock solution of […], and series stock dilution (1 to 2 dilution) were carried out as needed. The 10× stock solution were added to the cell media and cells were incubated for 24 hours at 37° C. For LPS stimulation in THP-1 cells, compounds were added to the cell media for 6 hours at and at the end of 4 hours, 50 μg/ml final concentration of LPS (Sigma L3024) was added and cells were incubated for 2 hours. […] The total RNA was harvested, and the relative mRNA expression levels were assessed via RT-PCR with HPRT as the internal control. […] Significance was determined by student's t-test in comparison to control.
Total RNA was collected using RNeasy Plus Mini Kit (Qiagen #74136) and cDNA generated using SuperScriptIII (Invitrogen #18080-044) with random hexamers following the manufacturer's protocol. Relative mRNA expression levels were determined using TaqMan probes (Applied Biosystems, using the recommended best primer pairs) with HPRT (hypoxanthine phosphoryltransferase) as the internal control. […]

[3] = test system: Pseudomona aeruginosa strain Xen05; assay: In vitro bacterial clearance assay using human bronchial epithelial cells (16HBE); assay type: cell-based; settings: 16HBE cells, 25 μM
Protocol: In this assay, normal 16HBE cells were cultured and seeded at 2×10^5 cells per well using a 48-well plate. The resulting plates were incubated at 37° C. with 5% CO2 until 90% confluency. Cells were then treated with compound II-3 for 24 hours and then infected with Pseudomona aeruginosa strain Xen05 at a multiplicity of infection (MOI) of 1:50 (i.e. ratio of cells:bacteria) for 2 hours. Cells were then incubated with 500 μL of a mixture consisting non-permeable antibiotic (50 U/mL each of penicillin and streptomycin, mixed with 200 μg/mL gentamicin) for 3 hours to remove the extracellular bacteria. Afterwards, cells were lysed and a bacteria count was carried out to determine the remaining intracellular bacteria load.

[4] = test system: LC3-II/LC3-I; assay: In vivo autophagy activation in mouse lung tissues; settings: mice, 100 mg/kg po BID 3.5 days; p=0.04
Protocol: as §1

[5] = lung tissue, parent II-3 and metabolite I-1, read-out: lung tissue concentration
[6] = plasma, parent II-3 and metabolite I-1, read-out: plasma concentration

Compound | concentration at 1 h [1, 5] [ng/g] | concentration at 1 h [1, 6] [ng/mL] | IL-1β mRNA level [2] | intracellular bacterial killing effect relative to positive control Cytochalasin-D [3] | intracellular clearance of Pseudomona aeruginosa ([3]; 24 hours pre-treatment) | increase in the ratio of LC3-II to LC3-I in the isolated lung tissues [4] [%]
CC/C=C\C/C=C\C/C=C\C/C=C\C/C=C\C/C=C\CCC(=O)NCCS [I-1, (4Z,7Z,10Z,13Z,16Z,19Z)—N-(2-mercaptoethyl)docosa-4,7,10,13,16,19-hexaenamide] | 411 ± 164 | 741 ± 170 |  |  |  | 
CC/C=C\C/C=C\C/C=C\C/C=C\C/C=C\C/C=C\CCC(=O)NCCSSC(C)(C)CNC(=O)c1cccnc1 [II-3, N-(2-((2-((4Z,7Z,10Z,13Z,16Z,19Z)-docosa-4,7,10,13,16,19-hexaenamido)ethyl)disulfanyl)-2-methylpropyl)nicotinamide] | 536 ± 24 | 143 ± 52.4 | marked reduction | comparable | effective intracellular clearance | 22
